# pIC50: −log10 of the molar value. Active and inactive are the calls of the source. The rule behind the calls is not given here.
# Assays:
# [1] = Aqueous solubility at pH 7.4; format: physicochemical
# Homo sapiens [2] = species: Homo sapiens; assay: Selectivity ratio of IC50 for human recombinant PDE11 to IC50 for human platelet PDE5
# Homo sapiens [3] = species: Homo sapiens; assay: Selectivity ratio of IC50 for human retina PDE6 to IC50 for human platelet PDE5
# [4] = Plasma protein binding in rat; format: ADME, cell-free; settings: read-out: PPB (converted)
# [5] = Clearance in Sprague-Dawley rat at 1 mg/kg, iv; format: ADME, organism-based; design: dose 1 mg/kg, route intravenous; settings: in vivo
# Homo sapiens [6] = species: Homo sapiens; assay: Plasma protein binding in human; settings: read-out: PPB (converted)
# Homo sapiens [7] = species: Homo sapiens; assay: Fraction unbound in human plasma
# [8] = Fraction unbound in rat plasma; format: ADME, cell-free
# [9] = Metabolic stability in human microsomes assessed as compound remaining after 30 mins; format: ADME, Microsome; settings: read-out: Stability
# [10] = Metabolic stability in rat microsomes assessed as compound remaining after 30 mins; format: ADME, Microsome; settings: read-out: Stability
# [11] = molecular target: Voltage-gated inwardly rectifying potassium channel KCNH2 (Homo sapiens, UniProt Q12809); assay: Inhibition of human ERG by patch-clamp method
# Voltage-gated inwardly rectifying potassium channel KCNH2, sequence (Q12809 whole entry): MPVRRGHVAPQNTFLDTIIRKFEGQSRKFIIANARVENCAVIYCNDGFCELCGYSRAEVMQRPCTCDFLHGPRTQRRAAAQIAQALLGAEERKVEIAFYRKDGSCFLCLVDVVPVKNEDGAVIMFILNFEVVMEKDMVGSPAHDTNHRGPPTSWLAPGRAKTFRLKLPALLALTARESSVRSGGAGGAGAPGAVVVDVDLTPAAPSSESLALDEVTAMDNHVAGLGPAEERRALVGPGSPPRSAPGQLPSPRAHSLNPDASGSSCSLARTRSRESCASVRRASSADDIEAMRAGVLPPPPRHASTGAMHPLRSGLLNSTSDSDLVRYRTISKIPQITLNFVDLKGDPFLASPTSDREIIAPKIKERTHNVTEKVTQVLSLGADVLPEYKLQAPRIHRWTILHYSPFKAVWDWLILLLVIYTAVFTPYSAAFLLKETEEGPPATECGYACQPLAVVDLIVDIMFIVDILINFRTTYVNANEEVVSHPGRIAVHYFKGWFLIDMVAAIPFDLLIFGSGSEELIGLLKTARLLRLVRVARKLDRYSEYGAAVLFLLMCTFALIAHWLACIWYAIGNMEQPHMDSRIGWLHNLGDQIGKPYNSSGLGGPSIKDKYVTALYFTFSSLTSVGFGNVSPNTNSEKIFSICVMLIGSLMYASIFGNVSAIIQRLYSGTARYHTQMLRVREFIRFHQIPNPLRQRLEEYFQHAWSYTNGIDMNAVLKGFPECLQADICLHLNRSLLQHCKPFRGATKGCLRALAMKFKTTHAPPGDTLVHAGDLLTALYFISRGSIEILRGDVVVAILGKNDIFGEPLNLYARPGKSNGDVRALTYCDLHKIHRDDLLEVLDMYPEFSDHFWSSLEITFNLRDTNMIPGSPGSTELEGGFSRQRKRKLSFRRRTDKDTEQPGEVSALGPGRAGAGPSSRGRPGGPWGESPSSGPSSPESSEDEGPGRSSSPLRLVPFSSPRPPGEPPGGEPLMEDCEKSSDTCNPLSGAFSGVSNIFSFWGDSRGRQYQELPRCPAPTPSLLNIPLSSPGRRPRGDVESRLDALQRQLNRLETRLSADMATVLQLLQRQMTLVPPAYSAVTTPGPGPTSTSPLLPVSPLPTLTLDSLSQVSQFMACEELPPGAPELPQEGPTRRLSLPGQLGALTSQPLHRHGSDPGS
# Plasma [12] = assay: Plasma protein binding in human; format: ADME, cell-free
# Plasma [13] = assay: Fraction unbound in human plasma; format: ADME, cell-free
# [14] = molecular target: cGMP-specific 3',5'-cyclic phosphodiesterase (Homo sapiens, UniProt O76074); assay: Inhibition of human platelet PDE5 assessed as reduction in conversion of [3H]cGMP to [3H]GMP after 2 hr by scintillation proximity assay
# [15] = molecular target: 3',5'-cyclic-AMP phosphodiesterase 4D (Homo sapiens, UniProt Q08499); assay: Inhibition of PDE4D
# [16] = molecular target: cGMP-inhibited 3',5'-cyclic phosphodiesterase 3B (Homo sapiens, UniProt Q13370); assay: Inhibition of PDE3B
# Rattus norvegicus [17] = assay: Toxicity in iv dosed SHR rat administered as three successive escalating doses; format: organism-based; settings: in vivo
# [18] = molecular target: 3',5'-cyclic-AMP phosphodiesterase 4C (Homo sapiens, UniProt Q08493); assay: Inhibition of PDE4C
# 3',5'-cyclic-AMP phosphodiesterase 4C, sequence (Q08493 whole entry): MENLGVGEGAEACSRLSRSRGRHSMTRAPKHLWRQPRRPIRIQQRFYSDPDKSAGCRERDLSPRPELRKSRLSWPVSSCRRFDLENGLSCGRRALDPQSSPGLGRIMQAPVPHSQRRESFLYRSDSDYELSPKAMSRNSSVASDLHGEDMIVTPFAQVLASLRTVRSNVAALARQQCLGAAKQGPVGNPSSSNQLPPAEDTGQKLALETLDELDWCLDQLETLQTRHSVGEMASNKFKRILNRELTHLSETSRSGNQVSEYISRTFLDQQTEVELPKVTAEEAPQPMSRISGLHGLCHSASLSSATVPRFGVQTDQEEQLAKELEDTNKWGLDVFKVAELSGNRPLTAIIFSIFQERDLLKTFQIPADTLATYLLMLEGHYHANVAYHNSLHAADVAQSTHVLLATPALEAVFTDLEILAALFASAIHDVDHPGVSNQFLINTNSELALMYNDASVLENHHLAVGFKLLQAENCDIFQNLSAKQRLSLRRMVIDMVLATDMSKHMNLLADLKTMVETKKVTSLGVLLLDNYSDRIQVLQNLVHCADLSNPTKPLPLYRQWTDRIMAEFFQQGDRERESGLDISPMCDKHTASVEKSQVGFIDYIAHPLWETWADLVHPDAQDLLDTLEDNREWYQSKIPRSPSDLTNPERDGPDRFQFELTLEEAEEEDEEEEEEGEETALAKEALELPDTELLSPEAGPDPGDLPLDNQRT
# [19] = Bioavailability in dog; format: ADME, organism-based, Canis lupus familiaris; settings: in vivo
# [20] = molecular target: Dual specificity calcium/calmodulin-dependent 3',5'-cyclic nucleotide phosphodiesterase 1C (Homo sapiens, UniProt Q14123); assay: Inhibition of PDE1C
# [21] = Clearance in dog; format: ADME, organism-based, Canis lupus familiaris; settings: in vivo
# [22] = molecular target: High affinity cAMP-specific and IBMX-insensitive 3',5'-cyclic phosphodiesterase 8A (Homo sapiens, UniProt O60658); assay: Inhibition of PDE8A
# High affinity cAMP-specific and IBMX-insensitive 3',5'-cyclic phosphodiesterase 8A, sequence (O60658 whole entry): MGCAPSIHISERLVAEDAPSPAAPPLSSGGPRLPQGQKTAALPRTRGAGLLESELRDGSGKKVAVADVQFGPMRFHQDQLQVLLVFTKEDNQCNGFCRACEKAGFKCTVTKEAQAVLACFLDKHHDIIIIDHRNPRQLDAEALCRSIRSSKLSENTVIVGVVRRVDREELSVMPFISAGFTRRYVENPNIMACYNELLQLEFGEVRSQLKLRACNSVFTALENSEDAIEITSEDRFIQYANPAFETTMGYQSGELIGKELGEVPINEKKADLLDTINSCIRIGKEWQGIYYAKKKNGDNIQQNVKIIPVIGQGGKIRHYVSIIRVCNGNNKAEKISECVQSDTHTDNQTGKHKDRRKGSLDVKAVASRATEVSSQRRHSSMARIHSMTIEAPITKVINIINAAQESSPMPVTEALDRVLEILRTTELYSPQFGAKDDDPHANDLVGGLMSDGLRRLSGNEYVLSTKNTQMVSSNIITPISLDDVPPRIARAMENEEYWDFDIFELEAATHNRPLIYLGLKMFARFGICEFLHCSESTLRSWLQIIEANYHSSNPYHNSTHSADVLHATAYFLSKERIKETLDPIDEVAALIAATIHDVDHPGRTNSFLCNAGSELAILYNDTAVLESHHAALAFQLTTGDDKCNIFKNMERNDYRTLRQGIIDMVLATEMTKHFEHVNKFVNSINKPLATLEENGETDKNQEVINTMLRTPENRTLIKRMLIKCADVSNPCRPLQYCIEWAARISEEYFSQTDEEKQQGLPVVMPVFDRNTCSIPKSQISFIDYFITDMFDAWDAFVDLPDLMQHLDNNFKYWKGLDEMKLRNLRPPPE
# [23] = Metabolic stability in cannulated Sprague-Dawley rat bile duct assessed as compound remaining after 6 hrs; format: ADME; settings: read-out: Stability
# [24] = molecular target: cGMP-inhibited 3',5'-cyclic phosphodiesterase 3A (Homo sapiens, UniProt Q14432); assay: Inhibition of PDE3A
# cGMP-inhibited 3',5'-cyclic phosphodiesterase 3A, sequence (Q14432 whole entry): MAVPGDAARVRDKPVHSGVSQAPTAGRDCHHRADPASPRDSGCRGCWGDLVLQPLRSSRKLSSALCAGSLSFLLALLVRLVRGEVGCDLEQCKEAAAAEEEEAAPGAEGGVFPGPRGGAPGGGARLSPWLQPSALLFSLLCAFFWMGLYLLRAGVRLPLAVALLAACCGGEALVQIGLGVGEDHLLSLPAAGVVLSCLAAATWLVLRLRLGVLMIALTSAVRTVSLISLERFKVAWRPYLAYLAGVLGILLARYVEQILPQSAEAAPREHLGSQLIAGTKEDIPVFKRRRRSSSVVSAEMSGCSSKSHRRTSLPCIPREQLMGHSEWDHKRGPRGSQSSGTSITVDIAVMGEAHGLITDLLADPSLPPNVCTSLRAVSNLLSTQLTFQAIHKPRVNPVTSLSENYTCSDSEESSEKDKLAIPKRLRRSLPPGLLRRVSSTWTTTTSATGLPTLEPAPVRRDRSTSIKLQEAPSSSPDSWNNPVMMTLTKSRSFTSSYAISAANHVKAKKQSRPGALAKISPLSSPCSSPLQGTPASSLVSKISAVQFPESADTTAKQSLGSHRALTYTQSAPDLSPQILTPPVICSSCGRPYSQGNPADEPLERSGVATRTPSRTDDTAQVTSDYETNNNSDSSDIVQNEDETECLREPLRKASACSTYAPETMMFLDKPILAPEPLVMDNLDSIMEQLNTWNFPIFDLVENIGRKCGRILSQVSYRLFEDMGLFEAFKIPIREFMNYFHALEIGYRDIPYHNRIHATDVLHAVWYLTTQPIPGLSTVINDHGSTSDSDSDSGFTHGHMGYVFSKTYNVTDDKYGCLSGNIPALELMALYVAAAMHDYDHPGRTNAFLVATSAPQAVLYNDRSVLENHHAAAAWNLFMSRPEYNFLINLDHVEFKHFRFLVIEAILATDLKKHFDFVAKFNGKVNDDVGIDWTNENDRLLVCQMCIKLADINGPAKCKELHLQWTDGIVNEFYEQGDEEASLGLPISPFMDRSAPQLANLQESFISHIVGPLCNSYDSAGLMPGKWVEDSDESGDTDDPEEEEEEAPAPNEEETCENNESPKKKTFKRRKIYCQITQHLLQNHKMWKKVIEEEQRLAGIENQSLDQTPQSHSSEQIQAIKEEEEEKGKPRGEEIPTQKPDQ
# [25] = molecular target: 3',5'-cyclic-AMP phosphodiesterase 4B (Homo sapiens, UniProt Q07343); assay: Inhibition of PDE4B
# [26] = molecular target: 3',5'-cyclic-AMP phosphodiesterase 7B (Homo sapiens, UniProt Q9NP56); assay: Inhibition of PDE7B
# 3',5'-cyclic-AMP phosphodiesterase 7B, sequence (Q9NP56 whole entry): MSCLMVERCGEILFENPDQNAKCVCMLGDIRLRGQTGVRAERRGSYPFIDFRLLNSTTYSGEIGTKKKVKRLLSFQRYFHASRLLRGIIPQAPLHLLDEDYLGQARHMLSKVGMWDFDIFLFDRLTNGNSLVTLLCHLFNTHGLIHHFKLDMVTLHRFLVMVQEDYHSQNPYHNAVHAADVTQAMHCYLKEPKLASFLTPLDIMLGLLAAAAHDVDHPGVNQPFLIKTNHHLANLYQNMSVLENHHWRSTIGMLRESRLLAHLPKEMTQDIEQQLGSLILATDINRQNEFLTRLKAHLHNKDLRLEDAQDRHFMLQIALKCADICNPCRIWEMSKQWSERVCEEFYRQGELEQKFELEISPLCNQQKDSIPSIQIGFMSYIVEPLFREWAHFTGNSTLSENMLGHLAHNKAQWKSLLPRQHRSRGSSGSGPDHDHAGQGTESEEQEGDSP
# [27] = Oral bioavailability in Sprague-Dawley rat at 1 mg/kg; format: ADME, organism-based; settings: in vivo
# [28] = Inhibition of PDE9
# [29] = molecular target: Dual specificity calcium/calmodulin-dependent 3',5'-cyclic nucleotide phosphodiesterase 1B (Homo sapiens, UniProt Q01064); assay: Inhibition of PDE1B
# Rattus norvegicus [30] = assay: Free plasma concentration in iv dosed anesthetized SHR rat administered as three successive escalating doses; format: ADME, organism-based; settings: in vivo
# Rattus norvegicus [31] = assay: Antihypertensive activity in iv dosed anesthetized SHR rat assessed as reduction of systemic arterial blood pressure at free plasma concentration of 2.3 nM; format: functional, organism-based; settings: Artery
# [32] = Elimination half life in healthy human; format: ADME, organism-based; settings: in vivo, read-out: beta t1/2 (converted)
# Rattus norvegicus [33] = assay: Antihypertensive activity in iv dosed anesthetized SHR rat assessed as reduction of systemic arterial blood pressure administered as three successive escalating doses measured during 30 to 50 mins portion of each 1 hr steady state infusion; format: functional, organism-based; settings: Artery
# [34] = molecular target: High affinity cAMP-specific and IBMX-insensitive 3',5'-cyclic phosphodiesterase 8B (Homo sapiens, UniProt O95263); assay: Inhibition of PDE8B
# [35] = Renal clearance in Sprague-Dawley rat as % compound recovered; format: ADME, organism-based, Kidney; settings: urine, read-out: Recovered in urine
# [36] = Ratio of free drug level in iv dosed SHR rat plasma administered as three successive escalating doses to IC50 for human platelet PDE5; format: ADME, organism-based; settings: in vivo
# [37] = Tmax in healthy human; format: ADME, organism-based; settings: in vivo
# [38] = Ratio of drug level in brain to blood in Sprague-Dawley rat at 10 mg/kg, sc administered as single dose measured after 2 hrs; format: ADME, organism-based; design: dose 10 mg/kg, route subcutaneous; settings: read-out: BBR
# [39] = molecular target: Dual specificity calcium/calmodulin-dependent 3',5'-cyclic nucleotide phosphodiesterase 1A (Homo sapiens, UniProt P54750); assay: Inhibition of PDE1A
# Dual specificity calcium/calmodulin-dependent 3',5'-cyclic nucleotide phosphodiesterase 1A, sequence (P54750 whole entry): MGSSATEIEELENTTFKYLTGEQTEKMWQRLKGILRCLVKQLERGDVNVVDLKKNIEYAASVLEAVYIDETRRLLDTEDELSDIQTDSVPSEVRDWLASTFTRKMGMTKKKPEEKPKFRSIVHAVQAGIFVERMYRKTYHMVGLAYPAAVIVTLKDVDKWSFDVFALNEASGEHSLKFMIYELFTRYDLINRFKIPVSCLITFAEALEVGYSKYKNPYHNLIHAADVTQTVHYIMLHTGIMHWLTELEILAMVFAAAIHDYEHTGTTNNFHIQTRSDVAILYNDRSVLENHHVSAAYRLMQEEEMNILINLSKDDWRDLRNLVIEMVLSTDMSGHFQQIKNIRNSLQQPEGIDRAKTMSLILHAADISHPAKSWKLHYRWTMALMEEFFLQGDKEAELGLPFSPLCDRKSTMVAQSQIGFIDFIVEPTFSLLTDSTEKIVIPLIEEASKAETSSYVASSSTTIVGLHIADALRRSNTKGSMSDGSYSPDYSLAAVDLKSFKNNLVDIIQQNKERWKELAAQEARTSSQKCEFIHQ
# Rattus norvegicus [40] = assay: Antihypertensive activity in anesthetized SHR rat assessed as reduction of systolic blood pressure at 2 mg/kg, po after 24 hrs relative to control; format: functional, Artery
# [41] = Inhibition of PDE2
# [42] = Inhibition of PDE7
# [43] = Renal clearance in dog as % compound recovered; format: ADME, organism-based, Canis lupus familiaris, Kidney; settings: urine, read-out: Recovered in urine
# [44] = molecular target: 3',5'-cyclic-AMP phosphodiesterase 4A (Homo sapiens, UniProt P27815); assay: Inhibition of PDE4A
compound,measurement,setting,value
CCCOCCn1c(=O)c(NCCNCCO)nc2cnc(-c3ccc(OC)nc3)cc21,solubility,[1],> 100 µM
same,Ratio IC50,Homo sapiens [2],> 1780
same,Ratio IC50,Homo sapiens [3],242
same,fraction unbound,[4],0.226
same,clearance,[5],582 mL/min/kg
same,fraction unbound,Homo sapiens [6],0.212
same,fraction unbound,Homo sapiens [7],0.18
same,fraction unbound,[8],0.18
same,remaining at 0.5 h,[9],95%
same,remaining at 0.5 h,[10],100%
same,pIC50,[11],5.35
CCCOCCn1c(=O)c(NCCN)nc2cnc(-c3ccc(OC)nc3)cc21,solubility,[1],> 100 µM
same,Ratio IC50,Homo sapiens [2],> 8000
same,Ratio IC50,Homo sapiens [3],4840
same,fraction unbound,[4],0.166
same,PPB,Plasma [12],69.4%
same,clearance,[5],170 mL/min/kg
same,fraction unbound,[8],0.18
same,remaining at 0.5 h,[9],97%
same,Fu,Plasma [13],18%
same,remaining at 0.5 h,[10],98%
CCCOCCn1c(=O)c(N2CCN(C[C@H](C)O)CC2)nc2cnc(-c3ccc(OC)nc3)cc21,Ratio IC50,Homo sapiens [2],1400
same,Ratio IC50,Homo sapiens [3],49
same,pIC50,[14],9.51
CCCOCCn1c(=O)c(N2CCN(C[C@@H](C)O)CC2)nc2cnc(-c3ccc(OC)nc3)cc21,Ratio IC50,Homo sapiens [2],2380
same,Ratio IC50,Homo sapiens [3],134
same,pIC50,[14],9.64
same,pIC50,[11],6.64
CCCOCCn1c(=O)c(N2CCN(CC)CC2)nc2cnc(-c3ccc(OC)nc3)cc21,pIC50,[14],9.66
CCCOCCn1c(=O)c(N2CCN(CCCO)CC2)nc2cnc(-c3ccc(OC)nc3)cc21,Ratio IC50,Homo sapiens [2],4260
same,Ratio IC50,Homo sapiens [3],62
same,pIC50,[14],9.74
CCCOCCn1c(=O)c(N2CCNCC2)nc2cnc(-c3ccc(OC)nc3)cc21,fraction unbound,[4],0.158
same,clearance,[5],42 mL/min/kg
same,remaining at 0.5 h,[9],86%
same,remaining at 0.5 h,[10],86%
same,pIC50,[11],6.17
CCCOCCn1c(=O)c(N2CCCN(CCCO)CC2)nc2cnc(-c3ccc(OC)nc3)cc21,Ratio IC50,Homo sapiens [2],> 1860
same,Ratio IC50,Homo sapiens [3],94
CCCOCCn1c(=O)c(N2CCCN(CCO)CC2)nc2cnc(-c3ccc(OC)nc3)cc21,Ratio IC50,Homo sapiens [2],> 2780
same,Ratio IC50,Homo sapiens [3],70
CCCOCCn1c(=O)c(N2CCN(CC(C)(C)O)CC2)nc2cnc(-c3ccc(OC)nc3)cc21,Ratio IC50,Homo sapiens [2],1370
same,Ratio IC50,Homo sapiens [3],64
CCCOCCn1c(=O)c(N2C[C@H]3C[C@@H]2CN3)nc2cnc(-c3ccc(OC)nc3)cc21,Ratio IC50,Homo sapiens [2],456
same,Ratio IC50,Homo sapiens [3],93
CCCOCCn1c(=O)c(N2CCN([C@@H](C)[C@@H](C)O)CC2)nc2cnc(-c3ccc(OC)nc3)cc21 (racemic),Ratio IC50,Homo sapiens [2],1740
same,Ratio IC50,Homo sapiens [3],134
same,pIC50,[11],7.27
CCCOCCn1c(=O)c(N2CCN([C@H](C)[C@@H](C)O)CC2)nc2cnc(-c3ccc(OC)nc3)cc21 (racemic),Ratio IC50,Homo sapiens [2],2090
same,Ratio IC50,Homo sapiens [3],68
same,pIC50,[14],9.52
CCCOCCn1c(=O)c(N2CCN(CCO)CC2)nc2cnc(-c3ccc(OC)nc3)cc21 [PF-03049423],pIC50,[15],< 5.70
same,pIC50,[16],< 5.70
same,Activity,Rattus norvegicus [17],Non-toxic
same,pIC50,[18],< 5.70
same,bioavailability,[19],92%
same,pIC50,[20],< 5.70
same,clearance,[21],5.8 mL/min/kg
same,pIC50,[22],< 5.70
same,Ratio IC50,Homo sapiens [2],2460
same,Ratio IC50,Homo sapiens [3],158
same,remaining at 6 h,[23],2%
same,fraction unbound,[4],0.171
same,pIC50,[24],< 5.70
same,pIC50,[25],< 5.70
same,pIC50,[26],< 5.70
same,PPB,Plasma [12],67.8%
same,bioavailability,[27],69%
same,pIC50,[14],9.70
same,pIC50,[28],< 5.70
same,pIC50,[29],< 5.70
same,Cp(f),Rattus norvegicus [30],2.3 nM
same,clearance,[5],37 mL/min/kg
same,Activity,Rattus norvegicus [31],Active
same,half-life,[32],17 h
same,Activity,Rattus norvegicus [33],Active
same,pIC50,[34],< 5.70
same,dose excreted,[35],< 2%
same,fraction unbound,[8],0.18
same,Ratio,[36],11
same,Tmax,[37],1 h
same,Kp at 2 h,[38],4
same,pIC50,[39],< 5.70
same,remaining at 0.5 h,[9],85%
same,Fu,Plasma [13],18%
same,Activity,Rattus norvegicus [40],25 mmHg
same,pIC50,[41],< 5.70
same,remaining at 0.5 h,[10],89%
same,pIC50,[42],< 5.70
same,pIC50,[11],5.75
same,dose excreted,[43],< 2%
same,pIC50,[44],< 5.70

# From ChEMBL document CHEMBL1157659, “Design, synthesis, and biological evaluation of 3-[4-(2-hydroxyethyl)piperazin-1-yl]-7-(6-methoxypyridin-3-yl)-1-(2-propoxyethyl)pyrido[3,4-b]pyrazin-2(1H)-one, a potent, orally active, brain penetrant inhibitor of phosphodiesterase 5 (PDE5)” (J Med Chem, 2010)
